Assay results published in patent US20250041236A1, “METHOD FOR SYNTHESIZING GINSENOSIDE RG3-LOADED NANONIOSOMES” (priority 2024, published 2025).

Assay: In vitro release of Rg3 by the dialysis method
Assay type: physicochemical
Conditions: after 24 hours, PBS pH 7.4, 37° C.
Experimental: To estimate the Rg3-loaded nanoniosome's in vitro drug release profile, 1 mL of the formulation was placed inside a dialysis bag and then immersed in a PBS solution (maintained at 37° C. and a pH of 7.4) with constant stirring. The PBS solution surrounding the dialysis bag (which contained released Rg3) was extracted at different time intervals for 24 hours, and the absorbance intensity was measured at 203 nm. The quantity of Rg3 measured in the medium is divided by the starting amount of Rg3 in the formulation to determine the amount of Rg3 released.

SMILES: CC(C)=CCC[C@](C)(O)[C@H]1CC[C@]2(C)[C@@H]1[C@H](O)C[C@@H]1[C@@]3(C)CC[C@H](O[C@@H]4O[C@H](CO)[C@@H](O)[C@H](O)[C@H]4O[C@@H]4O[C@H](CO)[C@@H](O)[C@H](O)[C@H]4O)C(C)(C)[C@@H]3CC[C@]12C [Ginsenoside Rg3]
- release of the loaded drug: 24.78%
